Assays:
[1] = tested on: ovine uterine artery endothelial cells from pregnant sheep (P-UAEC); test: Fura-2 [Ca2+]i imaging: ATP stimulated Ca2+ burst number after VEGF pretreatment, with or without rescue agent; format: cell-based; settings: for rescue from VEGF165 mediated inhibition of subsequent ATP stimulated Ca2+ bursts: rescue agent 10 uM added right before VEGF165 10 ng/ml, second ATP 100 uM response as % of first; for rescue from VEGF165 mediated inhibition of subsequent ATP stimulated Ca2+ bursts / CLA rescue of VEGF inhibitory effects on subsequent ATP burst number: 30 min; for CLA rescue of VEGF inhibitory effects on subsequent ATP burst number: t10:c12 CLA 50 uM added before VEGF165 10 ng/ml, compared with PP2 10 uM
Description: Studies in ovine uterine artery endothelial cells from pregnant sheep (P-UAEC). P-UAEC are a well-established cell model of endothelial cells isolated from uterine arteries and maintained in culture to passage 3 before freezing for future use.
Isolation of UAECs: Uterine arteries were obtained from Polypay and mixed Western breed nonpregnant sheep (n=4) and pregnant ewes (n=6) at 120-130 days of gestation during nonsurvival surgery, as described in the art. Procedures for animal handling and protocols for experimental procedures were approved by the University of Wisconsin-Madison Research Animal Care Committees of both the School of Medicine and Public Health and the College of Agriculture and Life Sciences and follow the recommended American Veterinary Medicine Association guidelines for humane treatment and euthanasia of laboratory farm animals.
Fura-2 [Ca^2+]i Imaging Studies: Uterine artery endothelial cells plated to 35-mm dishes with glass coverslip windows (MatTek Corp.) were grown to the required density (20%-100%, as described) and then loaded with 5 μM Fura-2 AM in Krebs buffer (125 mM NaCl, 5 mM KCl, 1 mM MgSO4, 1 mM KH2PO4, 6 mM glucose, 2 mM CaCl2, and 25 mM HEPES, pH 7.4) for 45 min. After rinsing and incubating a further 30 min to complete ester hydrolysis, Fura-2 loading was verified by viewing at 380-nm ultraviolet excitation on a Nikon inverted microscope (TS100; Melville, N.Y.). About 60 cells were then preselected and video recordings commenced using alternate excitation at 340 and 380 nm at 1-sec intervals and measuring emitted light using a digital camera. From the ratio of emission at 510 nm detected at the two excitation wavelengths, and by comparison to a standard curve established for the same settings using buffers of known free Ca^2+ concentration, the [Ca^2+]i was then calculated for individual cells in real time using InCyt Im2 software (Intracellular Imaging Inc., Cincinnati, Ohio).
Data in graphs is calculated comparing the cells repeated burst patterns before and after repeat treatment. ATP 100 μM 30 min followed by ATP 100 uM 30 min gives a marginal decline in number of Ca^2+ bursts (as defined in the art). However other agents activating protein kinases such as ERK and Src cause closure of CX43 and so loss of associated bursts. Therefore to perform the analysis, ATP stimulation is performed once to establish an uninhibited response for each cell. Then the inhibitory treatment under study is given (VEGF, 10 ng/ml or equivalent). After 30 minutes the second ATP treatment begins and burst response is expressed as % of the first ATP response. To then further test the protective or rescue effect of kinase inhibitors we follow the same protocol but add the rescue agent right before the VEGF. U0126 is an MEK/ERK pathway blocked, PP2 is a Src pathway blocker, and CLA is the test compound.

CX43 = test: Phosphorylation of CX43 at specific inhibitory sites in VEGF-treated uterine artery endothelial cells; format: cell-based, sheep; settings: cultured uterine artery endothelial cells from pregnant animals, VEGF inhibited, with rescue agent
ERK and Src signaling = settings: cancer cells; earlier finding; cited from earlier work

With `CC(C)(C)n1nc(-c2ccc(Cl)cc2)c2c(N)ncnc21` [PP2] the “rescue from VEGF165 mediated inhibition of subsequent ATP stimulated Ca2+ bursts” value ([1]; FIG. 3) was “can rescue the cells” and the “phosphorylation of CX43 at specific inhibitory sites” value (CX43) was “reversal of the phosphorylation of CX43”.
In the case of `N#CC(=C(/N)Sc1ccccc1N)/C(C#N)=C(\N)Sc1ccccc1N` [U0126], the “rescue from VEGF165 mediated inhibition of subsequent ATP stimulated Ca2+ bursts” value ([1]; FIG. 3) is reported as “can rescue the cells” and the “phosphorylation of CX43 at specific inhibitory sites” value (CX43) is reported as “reversal of the phosphorylation of CX43”.
With `CCCCCC/C=C/C=C\CCCCCCCC(=O)O` [c9:t11 CLA] the “CLA rescue of VEGF inhibitory effects on subsequent ATP burst number” value (“CLA rescue of VEGF inhibitory effects” for short) ([1]; FIG. 4) was “have not achieved rescue”.
For `CCCCC/C=C\C=C\CCCCCCCCC(=O)O` [t10:c12 CLA, t10:c12 conjugated linoleic acid], the “CLA rescue of VEGF inhibitory effects” value ([1]; FIG. 4) is listed as “can achieve the same rescue effect as PP2”, the “CLA rescue of VEGF inhibitory effects” value ([1]; FIG. 4, listed as CLA) is listed as “improvement of function beyond rescue” and the “inhibition of ERK and Src kinase signaling pathways” value (ERK and Src signaling) is listed as “can inhibit these pathways”.
For VEGF, the “effect of factor pretreatment on subsequent ATP stimulated Ca2+ bursts” value ([1]; 30 min pretreatment, 10 ng/ml, FIG. 3) was “inhibitory effects”.

— US20180147171A1, “TRANS10:CIS12 ISOMER OF CONJUGATED LINOLEIC ACID AS A THERAPEUTIC AND PREVENTATIVE AGENT FOR HYPERTENSION SPECIFIC TO PREGNANCY” (Wisconsin Alumni Research Foundation, priority 2012, published 2018)
